pEC50: −log10 of the molar value. Read-outs that look alike come from different tables or passages of the source.
How the values were obtained:
HCV genotype 1b replicon = test: HCV replicon assay, genotype 1b replicon EC50; type: cell-based, Hepatitis C virus; conditions: genotype 1b replicon, read-out: EC50 [gt-1b]
How it was run: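 Cells harbouring a stable replicon are grown under G418 selection, then plated with test compound in G418-free medium for 24-48 hours. After washing and lysis, RNA or luciferase signal is measured and expressed as percent of DMSO control to give EC50.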

[1] = target: HCV NS3/4A protease genotype 1b (Hepatitis C virus genotype 1b, UniProt P26663); test: HCV NS3/4A protease time-resolved fluorescence (TRF) assay, Ki against genotype 1b; type: biochemical; conditions: IC50 [gt-1b] (nM), NS3/4A genotype 1b, enzyme 0.2 nM
How it was run: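 Ki was converted from fitted IC50 using IC50=Ki(1+[S]/KM) and 25 nM substrate. Protease (genotype 1b 0.2 nM, A156T 0.4 nM, 3a 0.025 nM) and compound were pre-mixed 30 min in pH 7.5 HEPES/NaCl/glycerol/DTT buffer. Cleavage then proceeded 2.5 h at room temperature, detected by time-resolved europium fluorescence (340/615 nm).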

| SMILES | pEC50 (HCV genotype 1b replicon; Hepatitis C virus) | IC50 [1] [nM] | pEC50 (HCV genotype 1b replicon; Hepatitis C virus, K+ salt) | IC50 ([1]; K+ salt) [nM] | pEC50 (HCV genotype 1b replicon) |
| --- | --- | --- | --- | --- | --- |
| Cc1nc2ccc(Cl)cc2c2c1O[C@]1(CC2)C[C@H]2C(=O)N[C@]3(C(=O)NS(=O)(=O)C4(C)CC4)C[C@H]3/C=C\CCCCC[C@H](NC(=O)OCC3CCCC3)C(=O)N2C1 [Example 231, cyclopentylmethyl [(2R,6S,12Z,13aS,14aR,16aS)-9′-chloro-5′-methyl-14a-{[(1-methylcyclopropyl)sulfonyl]carbamoyl}-5,16-dioxo-1,1′,2′,5,6,7,8,9,10,11,13a,14,14a,15,16,16a-hexadecahydrospiro[cyclopropa[e]pyrrolo[1,2-a][1,4]diazacyclopentadecine-2,3′-pyrano[2,3-c]quinolin]-6-yl]carbamate] | 8.32 | 0.024 | – | – | – |
| Cc1nc2cc(F)c(F)cc2c2c1O[C@]1(CC2)C[C@H]2C(=O)N[C@]3(C(=O)NS(=O)(=O)C4(C)CC4)C[C@H]3/C=C\CCCCC[C@H](NC(=O)OCC3CCCC3)C(=O)N2C1 [Example 232, cyclopentylmethyl [(2R,6S,12Z,13aS,14aR,16aS)-8′,9′-difluoro-5′-methyl-14a-{[(1-methylcyclopropyl)sulfonyl]carbamoyl}-5,16-dioxo-1,1′,2′,5,6,7,8,9,10,11,13a,14,14a,15,16,16a-hexadecahydrospiro[cyclopropa[e]pyrrolo[1,2-a][1,4]diazacyclopentadecine-2,3′-pyrano[2,3-c]quinolin]-6-yl]carbamate] | 7.89 | 0.085 | – | – | – |
| Cc1nc2cc(Cl)ccc2c2c1O[C@]1(CC2)C[C@H]2C(=O)N[C@]3(C(=O)NS(=O)(=O)C4(C)CC4)C[C@H]3/C=C\CCCCC[C@H](NC(=O)OC(C)(C)C)C(=O)N2C1 [Example 233, tert-butyl [(2R,6S,12Z,13aS,14aR,16aS)-8′-chloro-5′-methyl-14a-{[(1-methylcyclopropyl)sulfonyl]carbamoyl}-5,16-dioxo-1,1′,2′,5,6,7,8,9,10,11,13a,14,14a,15,16,16a-hexadecahydrospiro[cyclopropa[e]pyrrolo[1,2-a][1,4]diazacyclopentadecine-2,3′-pyrano[2,3-c]quinolin]-6-yl]carbamate] | 8.82 | 0.051 | – | – | – |
| Cc1nc2cc(Cl)ccc2c2c1O[C@]1(CC2)C[C@H]2C(=O)N[C@]3(C(=O)NS(=O)(=O)C4(C)CC4)C[C@H]3/C=C\CCCCC[C@H](NC(=O)OCC(C)C)C(=O)N2C1 [Example 234, 2-methylpropyl [(2R,6S,12Z,13aS,14aR,16aS)-8′-chloro-5′-methyl-14a-{[(1-methylcyclopropyl)sulfonyl]carbamoyl}-5,16-dioxo-1,1′,2′,5,6,7,8,9,10,11,13a,14,14a,15,16,16a-hexadecahydrospiro[cyclopropa[e]pyrrolo[1,2-a][1,4]diazacyclopentadecine-2,3′-pyrano[2,3-c]quinolin]-6-yl]carbamate] | – | – | 8.35 | 0.025 | – |
| Cc1nc2cc(Cl)ccc2c2c1O[C@]1(CC2)C[C@H]2C(=O)N[C@]3(C(=O)NS(=O)(=O)C4(C)CC4)C[C@H]3/C=C\CCCCC[C@H](NC(=O)OCC(C)(C)C)C(=O)N2C1 [Example 235, 2,2-dimethylpropyl [(2R,6S,12Z,13aS,14aR,16aS)-8′-chloro-5′-methyl-14a-{[(1-methylcyclopropyl)sulfonyl]carbamoyl}-5,16-dioxo-1,1′,2′,5,6,7,8,9,10,11,13a,14,14a,15,16,16a-hexadecahydrospiro[cyclopropa[e]pyrrolo[1,2-a][1,4]diazacyclopentadecine-2,3′-pyrano[2,3-c]quinolin]-6-yl]carbamate] | – | – | 8.37 | 0.027 | – |
| Cc1nc2cc(Cl)ccc2c2c1O[C@]1(CC2)C[C@H]2C(=O)N[C@]3(C(=O)NS(=O)(=O)C4(C)CC4)C[C@H]3/C=C\CCCCC[C@H](NC(=O)OC3(C)CC3)C(=O)N2C1 [Example 236, 1-methylcyclopropyl [(2R,6S,12Z,13aS,14aR,16aS)-8′-chloro-5′-methyl-14a-{[(1-methylcyclopropyl)sulfonyl]carbamoyl}-5,16-dioxo-1,1′,2′,5,6,7,8,9,10,11,13a,14,14a,15,16,16a-hexadecahydrospiro[cyclopropa[e]pyrrolo[1,2-a][1,4]diazacyclopentadecine-2,3′-pyrano[2,3-c]quinolin]-6-yl]carbamate] | – | – | 8.14 | 0.056 | – |
| Cc1nc2cc(Cl)ccc2c2c1O[C@]1(CC2)C[C@H]2C(=O)N[C@]3(C(=O)NS(=O)(=O)C4(C)CC4)C[C@H]3/C=C\CCCCC[C@H](NC(=O)OC(C)C)C(=O)N2C1 [Example 237, propan-2-yl [(2R,6S,12Z,13aS,14aR,16aS)-8′-chloro-5′-methyl-14a-{[(1-methylcyclopropyl)sulfonyl]carbamoyl}-5,16-dioxo-1,1′,2′,5,6,7,8,9,10,11,13a,14,14a,15,16,16a-hexadecahydrospiro[cyclopropa[e]pyrrolo[1,2-a][1,4]diazacyclopentadecine-2,3′-pyrano[2,3-c]quinolin]-6-yl]carbamate] | 8.24 | 0.04 | – | – | – |
| Cc1nc2cc(Cl)ccc2c2c1O[C@]1(CC2)C[C@H]2C(=O)N[C@]3(C(=O)NS(=O)(=O)C4(C)CC4)C[C@H]3/C=C\CCCCC[C@H](NC(=O)OC3CCCC3)C(=O)N2C1 [Example 238, cyclopentyl [(2R,6S,12Z,13aS,14aR,16aS)-8′-chloro-5′-methyl-14a-{[(1-methylcyclopropyl)sulfonyl]carbamoyl}-5,16-dioxo-1,1′,2′,5,6,7,8,9,10,11,13a,14,14a,15,16,16a-hexadecahydrospiro[cyclopropa[e]pyrrolo[1,2-a][1,4]diazacyclopentadecine-2,3′-pyrano[2,3-c]quinolin]-6-yl]carbamate] | 8.11 | 0.02 | – | – | – |
| Cc1nc2cc(Cl)ccc2c2c1O[C@]1(CC2)C[C@H]2C(=O)N[C@]3(C(=O)NS(=O)(=O)C4(C)CC4)C[C@H]3/C=C\CCCCC[C@H](NC(=O)OC3CCC3)C(=O)N2C1 [Example 239, cyclobutyl [(2R,6S,12Z,13aS,14aR,16aS)-8′-chloro-5′-methyl-14a-{[(1-methylcyclopropyl)sulfonyl]carbamoyl}-5,16-dioxo-1,1′,2′,5,6,7,8,9,10,11,13a,14,14a,15,16,16a-hexadecahydrospiro[cyclopropa[e]pyrrolo[1,2-a][1,4]diazacyclopentadecine-2,3′-pyrano[2,3-c]quinolin]-6-yl]carbamate] | 8.29 | 0.068 | – | – | – |
| Cc1nc2ccccc2c2c1O[C@]1(CC2)C[C@H]2C(=O)N[C@]3(C(=O)NS(=O)(=O)C4(C)CC4)C[C@H]3/C=C\CCCCC[C@H](NC(=O)OC(C)C(F)(F)F)C(=O)N2C1 (stereo partly drawn) [Example 240, 1,1,1-trifluoropropan-2-yl [(2R,6S,12Z,13aS,14aR,16aS)-5′-methyl-14a-{[(1-methylcyclopropyl)sulfonyl]carbamoyl}-5,16-dioxo-1,1′,2′,5,6,7,8,9,10,11,13a,14,14a,15,16,16a-hexadecahydrospiro[cyclopropa[e]pyrrolo[1,2-a][1,4]diazacyclopentadecine-2,3′-pyrano[2,3-c]quinolin]-6-yl]carbamate] | – | 0.01 | – | – | 8.58 |
| Cc1nc2ccccc2c2c1O[C@]1(CC2)C[C@H]2C(=O)N[C@]3(C(=O)NS(=O)(=O)C4(C)CC4)C[C@H]3/C=C\CCCCC[C@H](NC(=O)OC(C)C(F)(F)F)C(=O)N2C1 (stereo partly drawn) [Example 241, 1,1,1-trifluoropropan-2-yl [(2R,6S,12Z,13aS,14aR,16aS)-5′-methyl-14a-{[(1-methylcyclopropyl)sulfonyl]carbamoyl}-5,16-dioxo-1,1′,2′,5,6,7,8,9,10,11,13a,14,14a,15,16,16a-hexadecahydrospiro[cyclopropa[e]pyrrolo[1,2-a][1,4]diazacyclopentadecine-2,3′-pyrano[2,3-c]quinolin]-6-yl]carbamate] | – | 0.012 | – | – | 8.54 |
| COCC(C)(C)OC(=O)N[C@H]1CCCCC/C=C\[C@@H]2C[C@@]2(C(=O)NS(=O)(=O)C2(C)CC2)NC(=O)[C@@H]2C[C@@]3(CN2C1=O)CC(F)(F)c1c(c(C(C)C)nc2ccc(OC)cc12)O3 [Example 242, 1-methoxy-2-methylpropan-2-yl [(2S,6S,12Z,13aS,14aR,16aS)-1′,1′-difluoro-9′-methoxy-14a-{[(1-methylcyclopropyl)sulfonyl]carbamoyl}-5,16-dioxo-5′-(propan-2-yl)-1,1′,2′,5,6,7,8,9,10,11,13a,14,14a,15,16,16a-hexadecahydrospiro[cyclopropa[e]pyrrolo[1,2-a][1,4]diazacyclopentadecine-2,3′-pyrano[2,3-c]quinolin]-6-yl]carbamate] | 8.47 | 0.022 | – | – | – |
| COc1ccc2nc(C(C)C)c3c(c2c1)CC[C@]1(C[C@H]2C(=O)N[C@]4(C(=O)NS(=O)(=O)C5(C)CC5)C[C@H]4/C=C\CCCCC[C@H](NC(=O)OC(C)(C)CCS(C)(=O)=O)C(=O)N2C1)O3 [Example 243, 2-methyl-4-(methylsulfonyl)butan-2-yl [(2R,6S,12Z,13aS,14aR,16aS)-9′-methoxy-14a-{[(1-methylcyclopropyl)sulfonyl]carbamoyl}-5,16-dioxo-5′-(propan-2-yl)-1,1′,2′,5,6,7,8,9,10,11,13a,14,14a,15,16,16a-hexadecahydrospiro[cyclopropa[e]pyrrolo[1,2-a][1,4]diazacyclopentadecine-2,3′-pyrano[2,3-c]quinolin]-6-yl]carbamate] | – | – | 7.37 | 0.012 | – |

Source: patent US8987195B2 (priority 2012, dated 2015)
